Experimental data reported in US11304929B2, “Tosylacetate based compounds and derivatives thereof as PHGDH inhibitors” (priority 2017, dated 2022).
Like-named read-outs stand apart in the source and are kept apart here.

Key:
MDA-MB-468 = assay: 13C3 Serine Assay MDA-MB-468 (13C3 serine levels by LC/MS/MS); format: cell-based; details: Homo sapiens
PHGDH = PHGDH (Homo sapiens (Human), UniProt O43175); assay: 3-Phosphoglycerate Dehydrogenase (PHGDH) Fluorescence Intensity Assay, run at two NAD/3-PG ratios: PHGDH_HIGH_NAD/3-PG (250 μM NAD/500 μM 3-PG) and PHGDH_500_NAD/3-PG (500 μM NAD/500 μM 3-PG); format: biochemical
Chain of PHGDH (O43175 2-533 limits assumed): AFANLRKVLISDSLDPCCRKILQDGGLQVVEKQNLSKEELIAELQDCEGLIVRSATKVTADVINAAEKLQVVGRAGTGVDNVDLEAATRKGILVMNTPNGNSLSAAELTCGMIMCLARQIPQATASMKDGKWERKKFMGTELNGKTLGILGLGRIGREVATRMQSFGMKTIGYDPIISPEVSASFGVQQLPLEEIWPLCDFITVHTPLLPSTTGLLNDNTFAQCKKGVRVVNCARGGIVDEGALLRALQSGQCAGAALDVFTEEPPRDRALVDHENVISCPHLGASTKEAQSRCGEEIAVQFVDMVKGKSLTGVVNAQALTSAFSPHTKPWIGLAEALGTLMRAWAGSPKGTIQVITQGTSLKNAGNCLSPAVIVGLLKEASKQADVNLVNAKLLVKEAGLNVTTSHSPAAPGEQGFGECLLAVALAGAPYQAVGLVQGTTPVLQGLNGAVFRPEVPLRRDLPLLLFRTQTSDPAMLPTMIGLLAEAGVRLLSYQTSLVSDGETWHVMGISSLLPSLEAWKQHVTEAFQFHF

[1] = MDA-MB-468 cells, 13C3 serine levels by LC/MS/MS, read-out: IC50 (13CSERINE)
[2] = 250 μM NAD/500 μM 3-PG, read-out: IC50 (PHGDH_HIGH_NAD/3-PG)
[3] = 500 μM NAD/500 μM 3-PG, read-out: IC50 (PHGDH_500_NAD/3-PG)

C[C@@H](NC(=O)c1cc(-c2ccc(F)cc2)nn1C)c1ccc(S(=O)(=O)CC(=O)OCC2(C)COC2)cc1 [Example 10-006, (3-methyloxetan-3-yl)methyl 2-{4-[(1R)-1-{[3-(4-fluorophenyl)-1-methyl-1H-pyrazol-5-yl]formamido}ethyl]benzenesulfonyl}acetate]
IC50 (MDA-MB-468; [1]): 0.103 µM | IC50 (PHGDH; [2]): 0.938 µM

COC(=O)C1(S(=O)(=O)c2ccc([C@@H](C)NC(=O)c3cc(-c4ccc(F)cc4)nn3C)cc2)CCOCC1 [Example 06-001, methyl 4-{4-[(1R)-1-{[3-(4-fluorophenyl)-1-methyl-1H-pyrazol-5-yl]formamido}ethyl]benzenesulfonyl}oxane-4-carboxylate]
IC50 (MDA-MB-468; [1]): 25.4 µM | IC50 (PHGDH; [2]): 7.7 µM

Cc1cc2c(cc(C(=O)N[C@H](CO)c3ccc(S(=O)(=O)CC(=O)OC(C)C)cc3)n2C)c(Cl)c1Cl [Example 01-021, propan-2-yl 2-{4-[(1S)-1-[(4,5-dichloro-1,6-dimethyl-1H-indol-2-yl)formamido]-2-hydroxyethyl]benzenesulfonyl}acetate]
IC50 (MDA-MB-468; [1]): 0.0126 µM | IC50 (PHGDH; [2]): 0.463 µM

COC(=O)CS(=O)(=O)c1ccc([C@@H](C)NC(=O)c2cc(-c3ccc(F)cc3)nn2C)cc1 [Example 02-001, methyl 2-{4-[(1R)-1-{[3-(4-fluorophenyl)-1-methyl-1H-pyrazol-5-yl]formamido}ethyl]benzenesulfonyl}acetate]
IC50 (MDA-MB-468; [1]): 0.0328 µM | IC50 (PHGDH; [2]): 1.26 µM

CC(C)OC(=O)CS(=O)(=O)c1ccc([C@@H](C)NC(=O)c2cc3c(Cl)cc(-c4cnn(C)c4)cc3n2C)cc1 [Example 01-011, propan-2-yl 2-{4-[(1R)-1-{[4-chloro-1-methyl-6-(1-methyl-1H-pyrazol-4-yl)-1H-indol-2-yl]formamido}ethyl]benzenesulfonyl}acetate]
IC50 (MDA-MB-468; [1]): 0.489 µM | IC50 (PHGDH; [2]): 1.93 µM

Cc1nc2c(cc(C(=O)N[C@H](CO)c3ccc(S(=O)(=O)CC(=O)O)cc3)n2C)c(Cl)c1Cl [Example 03-011, 2-{4-[(1S)-1-({4,5-dichloro-1,6-dimethyl-1H-pyrrolo[2,3-b]pyridin-2-yl}formamido)-2-hydroxyethyl]benzenesulfonyl}acetic acid]
IC50 (MDA-MB-468; [1]): 2 µM | IC50 (PHGDH; [2]): 0.009 µM

CC(C)OC(=O)CS(=O)(=O)c1ccc([C@@H](C)NC(=O)c2cc(-c3ccc(F)cc3)nn2C)cc1 [Example 02-008, propan-2-yl 2-{4-[(1R)-1-{[3-(4-fluorophenyl)-1-methyl-1H-pyrazol-5-yl]formamido}ethyl]benzenesulfonyl}acetate]
IC50 (MDA-MB-468; [1]): 0.0684 µM | IC50 (PHGDH; [2]): 4.84 µM

Cc1cc2c(cc(C(=O)N[C@H](CO)c3ccc(S(=O)(=O)CC(=O)O)cc3)n2C)c(Cl)c1Cl [Example 03-006, 2-{4-[(1S)-1-[(4,5-dichloro-1,6-dimethyl-1H-indol-2-yl)formamido]-2-hydroxyethyl]benzenesulfonyl}acetic acid]
IC50 (MDA-MB-468; MDA-MB-468, read-out: IC50 (13CSERINE)): 0.203 µM | IC50 (PHGDH; [2]): 0.003 µM | IC50 (PHGDH; [3]): 0.004 µM

Cc1cc(Cl)c2cc(C(=O)N[C@H](C)c3ccc(S(=O)(=O)CC(=O)OCCOCCO)cc3)n(C)c2c1 [Example 09-005, 2-(2-hydroxyethoxy)ethyl 2-{4-[(1R)-1-[(4-chloro-1,6-dimethyl-1H-indol-2-yl)formamido]ethyl]benzenesulfonyl}acetate]
IC50 (MDA-MB-468; [1]): 0.139 µM | IC50 (PHGDH; [2]): 0.197 µM

CCOC(=O)CS(=O)(=O)c1ccc([C@@H](C)NC(=O)c2cc3c(Cl)cc(C)cc3n2C)cc1 [Example 01-004, ethyl 2-{4-[(1R)-1-[(4-chloro-1,6-dimethyl-1H-indol-2-yl)formamido]ethyl]benzenesulfonyl}acetate]
IC50 (MDA-MB-468; [1]): 0.0293 µM | IC50 (PHGDH; [2]): 0.964 µM

Cc1cc(Cl)c2cc(C(=O)N[C@H](C)c3ccc(S(=O)(=O)CC(=O)OCCO)cc3)n(C)c2c1 [Example 09-007, 2-hydroxyethyl 2-{4-[(1R)-1-[(4-chloro-1,6-dimethyl-1H-indol-2-yl)formamido]ethyl]benzenesulfonyl}acetate]
IC50 (MDA-MB-468; [1]): 0.0239 µM | IC50 (PHGDH; [2]): 0.166 µM

CCOC(=O)CS(=O)(=O)c1ccc([C@@H](CO)NC(=O)c2cc3c(F)c(F)c(C)cc3n2C)cc1 [Example 01-028, ethyl 2-{4-[(1S)-1-[(4,5-difluoro-1,6-dimethyl-1H-indol-2-yl)formamido]-2-hydroxyethyl]benzenesulfonyl}acetate]
IC50 (MDA-MB-468; [1]): 0.0073 µM | IC50 (PHGDH; [2]): 0.267 µM | IC50 (PHGDH; [3]): 0.525 µM

CCOC(=O)CS(=O)(=O)c1ccc([C@@H](C)NC(=O)c2cc3c(Cl)cc(-c4cnn(C)c4)cc3n2C)cc1 [Example 01-009, ethyl 2-{4-[(1R)-1-{[4-chloro-1-methyl-6-(1-methyl-1H-pyrazol-4-yl)-1H-indol-2-yl]formamido}ethyl]benzenesulfonyl}acetate]
IC50 (MDA-MB-468; [1]): 0.0441 µM | IC50 (PHGDH; [2]): 0.815 µM

CC(C)OC(=O)CS(=O)(=O)c1ccc([C@@H](C)NC(=O)c2cc(-c3ccccc3)nn2C)cc1 [Example 02-011, propan-2-yl 2-{4-[(1R)-1-[(1-methyl-3-phenyl-1H-pyrazol-5-yl)formamido]ethyl]benzenesulfonyl}acetate]
IC50 (MDA-MB-468; [1]): 0.135 µM | IC50 (PHGDH; [2]): 6.72 µM

Cc1cc(Cl)c2cc(C(=O)N[C@H](C)c3ccc(S(=O)(=O)C(C)(C)C(=O)O)cc3)n(C)c2c1 [Example 07-005, 2-{4-[(1R)-1-[(4-chloro-1,6-dimethyl-1H-indol-2-yl)formamido]ethyl]benzenesulfonyl}-2-methylpropanoic acid]
IC50 (MDA-MB-468; [1]): 1.19 µM | IC50 (PHGDH; [2]): 0.012 µM

CC(=O)OCOC(=O)CS(=O)(=O)c1ccc([C@@H](C)NC(=O)c2cc(-c3ccccc3)nn2C)cc1 [Example 10-003, (acetyloxy)methyl 2-{4-[(1R)-1-[(1-methyl-3-phenyl-1H-pyrazol-5-yl)formamido]ethyl]benzenesulfonyl}acetate]
IC50 (MDA-MB-468; [1]): 0.0237 µM | IC50 (PHGDH; [2]): 0.816 µM

COCCC(C(=O)OC)S(=O)(=O)c1ccc([C@@H](C)NC(=O)c2cc3c(Cl)cc(C)cc3n2C)cc1 (stereo partly drawn) [Example 05-005, methyl 2-{4-[(1R)-1-[(4-chloro-1,6-dimethyl-1H-indol-2-yl)formamido]ethyl]benzenesulfonyl}-4-methoxybutanoate]
IC50 (MDA-MB-468; [1]): 0.831 µM | IC50 (PHGDH; [2]): 0.652 µM

CCOC(=O)C(C)S(=O)(=O)c1ccc([C@@H](C)NC(=O)c2cc3c(Cl)cc(C)cc3n2C)cc1 (stereo partly drawn) [Example 05-011, ethyl 2-{4-[(1R)-1-[(4-chloro-1,6-dimethyl-1H-indol-2-yl)formamido]ethyl]benzenesulfonyl}propanoate]
IC50 (MDA-MB-468; [1]): 0.0039 µM | IC50 (PHGDH; [2]): 5.02 µM

Cc1cc(Cl)c2cc(C(=O)N[C@H](C)c3ccc(S(=O)(=O)C4(C(=O)O)CCOCC4)cc3)n(C)c2c1 [Example 07-002, 4-{4-[(1R)-1-[(4-chloro-1,6-dimethyl-1H-indol-2-yl)formamido]ethyl]benzenesulfonyl}oxane-4-carboxylic acid]
IC50 (MDA-MB-468; [1]): 6.9 µM | IC50 (PHGDH; [2]): 0.007 µM

Cc1cc(Cl)c2cc(C(=O)N[C@H](C)c3ccc(S(=O)(=O)CC(=O)OCc4cccc(C(F)(F)F)c4)cc3)n(C)c2c1 [Example 09-011, [3-(trifluoromethyl)phenyl]methyl 2-{4-[(1R)-1-[(4-chloro-1,6-dimethyl-1H-indol-2-yl)formamido]ethyl]benzenesulfonyl}acetate]
IC50 (MDA-MB-468; [1]): 0.0201 µM | IC50 (PHGDH; [2]): 3.51 µM

Cc1cc(Cl)c2cc(C(=O)N[C@H](C)c3ccc(S(=O)(=O)CC(=O)OC4CCOCC4)cc3)n(C)c2c1 [Example 09-014, oxan-4-yl 2-{4-[(1R)-1-[(4-chloro-1,6-dimethyl-1H-indol-2-yl)formamido]ethyl]benzenesulfonyl}acetate]
IC50 (MDA-MB-468; [1]): 0.0147 µM | IC50 (PHGDH; [2]): 1.04 µM

COC(=O)CS(=O)(=O)c1ccc([C@@H](C)NC(=O)c2cc3c(Cl)cc(C)cc3n2C)nc1 [Example 01-029, methyl 2-({6-[(1R)-1-[(4-chloro-1,6-dimethyl-1H-indol-2-yl)formamido]ethyl]pyridin-3-yl}sulfonyl)acetate]
IC50 (MDA-MB-468; [1]): 0.0514 µM

Cc1cc(Cl)c2cc(C(=O)N[C@H](C)c3ccc(S(=O)(=O)CC(=O)OCCOC(=O)CS(=O)(=O)c4ccc([C@@H](C)NC(=O)c5cc6c(Cl)cc(C)cc6n5C)cc4)cc3)n(C)c2c1 [Example 15-011, 2-[(2-{4-[(1R)-1-[(4-chloro-1,6-dimethyl-1H-indol-2-yl)formamido]ethyl]benzenesulfonyl}acetyl)oxy]ethyl 2-{4-[(1R)-1-[(4-chloro-1,6-dimethyl-1H-indol-2-yl)formamido]ethyl]benzenesulfonyl}acetate]
IC50 (MDA-MB-468; [1]): 0.249 µM

Cc1cc(Cl)c2cc(C(=O)N[C@H](C)c3ccc(S(=O)(=O)CC(=O)CS(=O)(=O)c4ccc([C@@H](C)NC(=O)c5cc6c(Cl)cc(C)cc6n5C)cc4)cc3)n(C)c2c1 [Example 15-008, 4-chloro-N-[(1R)-1-[4-(3-{4-[(1R)-1-[(4-chloro-1,6-dimethyl-1H-indol-2-yl)formamido]ethyl]benzenesulfonyl}-2-oxopropanesulfonyl)phenyl]ethyl]-1,6-dimethyl-1H-indole-2-carboxamide]
IC50 (MDA-MB-468; [1]): 0.0119 µM

Cc1cc(Cl)c2cc(C(=O)N[C@H](C)c3ccc(S(=O)(=O)CC(=O)N(C)C)cc3)n(C)c2c1 [Example 15-009, 4-chloro-N-[(1R)-1-{4-[(dimethylcarbamoyl)methanesulfonyl]phenyl}ethyl]-1,6-dimethyl-1H-indole-2-carboxamide]
IC50 (MDA-MB-468; [1]): 3.39 µM

Cc1cc(Cl)c2cc(C(=O)N[C@H](C)c3ccc(S(=O)(=O)CC(=O)OC(C)C)cc3)n(C)c2c1 [Example 01-018, propan-2-yl 2-{4-[(1R)-1-[(4-chloro-1,6-dimethyl-1H-indol-2-yl)formamido]ethyl]benzenesulfonyl}acetate]
IC50 (MDA-MB-468; [1]): 0.0663 µM

Cc1cc(Cl)c2cc(C(=O)N[C@H](C)c3ccc(S(=O)(=O)CC(=O)CCC(=O)O)cc3)n(C)c2c1 [Example 15-003, 5-{4-[(1R)-1-[(4-chloro-1,6-dimethyl-1H-indol-2-yl)formamido]ethyl]benzenesulfonyl}-4-oxopentanoic acid]
IC50 (MDA-MB-468; [1]): 9.64 µM
